Reference: patent US8026218B2, “Bifunctional analgesic compounds for opioid receptor agonists and neurokinin-1 receptor antagonists” (The University of Arizona, priority 2006, dated 2011)
Where “and” joins values, the source holds several entries; their conditions need not be identical. Identical values can stand only once. Entries after “also recorded” stand apart in the source; their conditions may differ. Like-named read-outs stand apart in the source and are kept apart here.

Key:
[1] = target: T1, human NK1 receptor (hNK1) (Homo sapiens, UniProt P25103); conditions: Cascieri 1994; cited from earlier work
T1 construct: expressed in transfected cells
T1 sequence (P25103 whole entry): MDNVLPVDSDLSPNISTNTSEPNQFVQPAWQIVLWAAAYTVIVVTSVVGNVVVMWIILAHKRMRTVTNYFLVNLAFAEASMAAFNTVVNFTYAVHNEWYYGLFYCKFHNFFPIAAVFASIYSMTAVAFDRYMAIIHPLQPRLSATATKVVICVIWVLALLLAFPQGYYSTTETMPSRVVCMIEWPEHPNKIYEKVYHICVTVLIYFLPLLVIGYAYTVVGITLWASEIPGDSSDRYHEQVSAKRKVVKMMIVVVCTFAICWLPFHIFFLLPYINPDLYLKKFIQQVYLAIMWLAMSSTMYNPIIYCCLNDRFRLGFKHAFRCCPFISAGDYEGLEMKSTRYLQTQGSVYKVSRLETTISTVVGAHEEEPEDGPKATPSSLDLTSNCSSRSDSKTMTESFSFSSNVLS

[2] = target: T2, Substance P receptors (guinea pig NK1) (Cavia porcellus, UniProt P30547); test: Guinea pig isolated ileum (GPI) assay with substance P stimulation in presence of 1 μM naloxone
T2 construct: from tissue; host or cells: guinea pig (Hartley) ileum LMMP, 1 μM naloxone present
T2 sequence (P30547 whole entry): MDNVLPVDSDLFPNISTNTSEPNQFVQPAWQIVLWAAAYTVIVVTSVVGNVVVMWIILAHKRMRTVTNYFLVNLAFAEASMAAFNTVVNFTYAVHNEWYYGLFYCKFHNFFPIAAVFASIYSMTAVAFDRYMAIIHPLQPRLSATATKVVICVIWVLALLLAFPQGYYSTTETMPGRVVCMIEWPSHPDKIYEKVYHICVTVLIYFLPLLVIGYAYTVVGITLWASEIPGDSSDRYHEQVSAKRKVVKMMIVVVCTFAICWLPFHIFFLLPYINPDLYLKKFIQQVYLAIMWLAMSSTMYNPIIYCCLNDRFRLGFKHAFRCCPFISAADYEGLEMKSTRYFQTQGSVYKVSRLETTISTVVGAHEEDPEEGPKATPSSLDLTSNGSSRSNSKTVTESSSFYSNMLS
Method: Testing stopped at 1 mM concentrations of the test compound.
Analysis of GPI and MVD assays. For opioid data analysis, percentage inhibition was calculated using the average tissue contraction height for 1 min preceding the addition of the agonist divided by the contraction height 3 min after exposure to the dose of agonist. […] IC50 and Emax estimates were determined by computerized nonlinear least-squares analysis (the pharmacological statistics package FlashCalc: Dr. Michael Ossipov, University of Arizona, Tucson, Ariz.). […] A50 values represent the mean of not less than 4 tissues. A50 and Emax estimates were determined by computerized nonlinear least-squares analysis (FlashCalc).

[3] = test system: male Sprague Dawley rats; test: Anti-nociception, infrared radiant heat paw withdrawal latency; type: in vivo, rat; conditions: i.th.
Method: (§1) To estimate the analgesic potency of the chimeric compounds, anti-nociceptive, anti-hyperalgecia and anti-allodynic efficacies is tested via intrathecal (i.th.) or systemic (s.c.) administration of the compounds in L5/L6 spinal nerve ligated (SNL) male Sprague Dawley rats. Anti-nociception and anti-hyperalgecia were determined by using the infrared thermal testing, wherein paw withdrawal latencies were measured in response to a mobile radiant heat (FIG. 7-14). Anti-allodynic effect was measured in von Frey filamental testing (FIG. 7-14). Both chronic and acute animal models were tested ([…]).
(§2) In vivo Biological Activity. […] Food and water was available ad libitum. […] I.th. […] Each training session lasted three minutes. […] Discussion.

[4] = test system: normal, uninjured rats; test: Rotarod motor skill test; conditions: highest analgesic dose 30 μg
[5] = target: T1, human NK1 receptor (hNK1); test: Radioligand competition binding, [3H]-Substance P, hNK1; conditions: Ki rNK1 vs Ki hNK1
[6] = Brain distribution, in situ perfusion model; type: in vivo; conditions: FIG. 20
[7] = test system: μ opioid receptors (GPI); test: Guinea pig isolated ileum (GPI) assay, opioid agonist;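 further: inhibition of electrically evoked contractions (0.1 Hz, 0.4 msec, supramaximal voltage) in organ baths at 37 °C, contraction height 3 min after each cumulative dose versus the 1 min before dosing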
[8] = Solubility in HEPES buffer; type: physicochemical; conditions: pH 7.4; 0.05 N HEPES buffer in 0.1 N NaCl solution
Method: Solubility. HEPES buffer (0.05 M HEPES buffer in 0.1 M NaCl, pH 7.4, 500 μL) was added to 1 mg of compound. The sample was vortexed for 30 sec, sonicated for 5 min, shaken at r.t. for 2 h, and then allowed to be stayed overnight to equilibration. The sample was filtrated with an Acrodisc Syringe Filter (13 mm, 0.45 μm pore, PTFE membrane, Pall Life Sciences, East Hills, N.Y.).

[9] = Octanol/saline distribution (logD7.4); type: physicochemical; conditions: 0.05 N HEPES buffer in 0.1 N NaCl
[10] = target: T3, rat NK1 (rNK1) receptor (Rattus norvegicus, UniProt P14600); test: Radioligand competition binding, [3H]substance P, rNK1/CHO membranes; conditions: for IC50: membranes from transfected CHO cells
T3 construct: expressed in transfected cells; host or cells: CHO (rNK-1/CHO cell line from Dr. James Krause)
T3 sequence (P14600 whole entry): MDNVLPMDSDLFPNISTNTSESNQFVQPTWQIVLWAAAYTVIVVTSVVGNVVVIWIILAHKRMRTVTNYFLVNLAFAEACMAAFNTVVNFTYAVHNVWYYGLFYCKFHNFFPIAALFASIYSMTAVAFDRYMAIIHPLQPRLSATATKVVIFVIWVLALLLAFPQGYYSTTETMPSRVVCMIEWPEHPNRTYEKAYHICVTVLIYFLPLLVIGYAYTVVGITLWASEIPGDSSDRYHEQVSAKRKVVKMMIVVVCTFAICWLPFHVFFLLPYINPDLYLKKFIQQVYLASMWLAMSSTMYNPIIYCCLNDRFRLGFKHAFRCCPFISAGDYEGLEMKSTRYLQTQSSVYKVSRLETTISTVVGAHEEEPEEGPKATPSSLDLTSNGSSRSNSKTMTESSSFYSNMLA

[11] = test system: L5/L6 spinal nerve ligated (SNL) male Sprague Dawley rats; test: Anti-allodynia, von Frey filament testing in L5/L6 SNL rats; type: in vivo, rat; conditions: for anti-allodynic effect against mechanical stimulation: SNL rats, words
Method: as §1, §2

[12] = test system: male Sprague Dawley rats; test: Observation of toxicity throughout the in vivo studies; design: species or system rat
Excerpt: as §2
These assays gave the inventors very encouraging results.

[13] = target: T4, rat μ opioid receptors (rMOR) (Rattus norvegicus, UniProt P33535); test: biochemical; type: biochemical
T4 construct: expressed in transfected cells; host or cells: HN9.10 neuroblastoma cell line, pCDNA3, neomycin-selected clones
T4 sequence (P33535 whole entry): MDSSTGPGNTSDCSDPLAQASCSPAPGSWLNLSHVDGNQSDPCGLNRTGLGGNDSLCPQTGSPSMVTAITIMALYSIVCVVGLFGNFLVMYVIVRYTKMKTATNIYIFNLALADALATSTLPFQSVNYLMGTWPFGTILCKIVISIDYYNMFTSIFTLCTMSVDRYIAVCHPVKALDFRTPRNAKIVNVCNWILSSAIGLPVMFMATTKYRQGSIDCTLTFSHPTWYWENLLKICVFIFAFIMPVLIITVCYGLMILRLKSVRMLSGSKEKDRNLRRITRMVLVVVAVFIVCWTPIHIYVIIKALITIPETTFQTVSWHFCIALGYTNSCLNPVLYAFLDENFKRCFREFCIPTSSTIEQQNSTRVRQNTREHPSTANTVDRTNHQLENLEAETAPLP

[14] = target: T5, human δ opioid receptors (hDOR) (Homo sapiens, UniProt P41143); test: [35S]GTP-γ-S binding assay, hDOR; type: biochemical
T5 construct: expressed in transfected cells; host or cells: HN9.10 neuroblastoma cell line, pCDNA3, neomycin-selected clones
T5 sequence (P41143 whole entry): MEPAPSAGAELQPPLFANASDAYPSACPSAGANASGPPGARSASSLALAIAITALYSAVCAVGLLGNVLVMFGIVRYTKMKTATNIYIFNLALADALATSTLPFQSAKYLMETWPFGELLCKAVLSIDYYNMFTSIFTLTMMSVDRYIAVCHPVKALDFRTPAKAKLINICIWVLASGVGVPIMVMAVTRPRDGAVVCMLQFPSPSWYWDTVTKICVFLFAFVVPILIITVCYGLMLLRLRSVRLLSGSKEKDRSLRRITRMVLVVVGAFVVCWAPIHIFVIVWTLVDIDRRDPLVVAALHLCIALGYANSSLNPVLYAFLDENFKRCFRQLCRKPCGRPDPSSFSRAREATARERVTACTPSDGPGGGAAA

[15] = target: T6, δ opioid receptors (MVD) (Mus musculus, UniProt P32300); test: Mouse isolated vas deferens (MVD) assay, opioid agonist
T6 construct: from tissue; host or cells: mouse (ICR) isolated vas deferens
T6 sequence (P32300 whole entry): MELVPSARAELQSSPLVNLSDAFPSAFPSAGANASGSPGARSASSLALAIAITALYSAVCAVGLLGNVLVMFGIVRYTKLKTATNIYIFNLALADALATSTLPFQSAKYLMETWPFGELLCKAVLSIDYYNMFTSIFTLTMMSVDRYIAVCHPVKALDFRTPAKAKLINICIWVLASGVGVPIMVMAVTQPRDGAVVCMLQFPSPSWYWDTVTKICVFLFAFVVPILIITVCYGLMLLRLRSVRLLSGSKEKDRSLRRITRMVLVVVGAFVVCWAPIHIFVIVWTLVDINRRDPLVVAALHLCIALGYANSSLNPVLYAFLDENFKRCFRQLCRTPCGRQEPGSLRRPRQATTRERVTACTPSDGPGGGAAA

[16] = target: T5, human δ opioid receptors (hDOR); test: Radioligand competition binding, [3H]DPDPE, hDOR membranes; conditions: membranes from transfected HN9.10 cells
[17] = test system: L5/L6 spinal nerve ligated (SNL) male Sprague Dawley rats; test: Anti-hyperalgesia, infrared radiant heat in L5/L6 SNL rats; type: in vivo, rat
Method: as §1, §2

[18] = test system: normal, uninjured rats; conditions: reported; cited from earlier work
[19] = chronic, i.th., SNL-operated animals

In the case of `CC(=O)N[C@@H](Cc1c[nH]c2ccccc12)C(=O)OCc1cc(C(F)(F)F)cc(C(F)(F)F)c1` [L-732,138, Ac-Trp-3,5-O-Bzl(CF3)2, reference compound], the “less affinity for rNK1 than hNK1 receptor” value [1] is listed as 200 fold, the “Substance P antagonist, GPI, Ke” value ([2]; Table 16, in the presence of 1 μM naloxone) is listed as 250 ± 87 nM and the “Substance P antagonist, GPI, Ke” value ([2]; Table 22, in the presence of 1 μM naloxone) is listed as 250 ± 87 nM. For the same compound, the “Substance P antagonist, GPI, Ke” value ([2]; in the presence of 1 μM naloxone) was 247 nM and the “Substance P antagonist, GPI, Ke” value ([2]; in the presence of 1 μM naloxone, 138) was 247 ± 87 nM and 250 ± 87 nM.

With `CSCC[C@H](NC(=O)[C@H](Cc1ccccc1)NC(=O)CNC(=O)[C@@H](C)NC(=O)[C@@H](N)Cc1ccc(O)cc1)C(=O)N1CCC[C@H]1C(=O)N[C@@H](CC(C)C)C(=O)N[C@@H](Cc1c[nH]c2ccccc12)C(=O)OCc1cc(C(F)(F)F)cc(C(F)(F)F)c1` [TY005, H-Tyr-D-Ala-Gly-Phe-Met-Pro-Leu-Trp-O-3,5-Bzl(CF3)2] the “time after administration at which efficacy disappeared” value [3] was 45 min, the anti-nociceptive effect ([3]; infrared radiant heat, words) was “very potent; also recorded: distinct anti-nociceptive effect” and the “sensorimotor impairment in rotarod test” value [4] was “no sensorimotor impairment”. The “species difference between affinities at rNK1 and hNK1” value [5] was 3.4 fold, the “blood brain barrier penetration” value [6] was “penetrate blood brain barrier” and the IC50 ([7]; Table 16, electrically stimulated isolated tissue, read-out: Opioid agonist GPI (μ), IC50) was 360 ± 130 nM. For the same compound, the IC50 ([7]; Table 28, read-out: GPI/LMMP Opioid(m) Agonist (IC50; nM)) was 359 nM, the IC50 ([7]; Table 30, read-out: GPI/LMMP Opioid(m) Agonist (IC50; nM)) was 359 nM and the IC50 ([7]; Table 39, read-out: GPI/LMMP opioid(mu) agonist (IC50; nM)) was 359 nM. It also gave an IC50 ([7]; electrically stimulated isolated tissue, read-out: GPI (μ), IC50) of 359 ± 127 nM, a solubility [8] of under 0.2 µg/mL and a logD7.4 [9] of over 4.0. For the same compound, the Ki ([10]; Affinity rNK1 (Ki; nM), Table 29) was 0.2 nM, the IC50 ([10]; IC50, rNK1, Substance P radioligand) was 6.4 nM and the IC50 ([10]; LogIC50, rNK1, Substance P radioligand) was 6.03 nM. The “anti-allodynic effect against mechanical stimulation” value [11] was “very potent anti-allodynic effect”, the “mechanical allodynia after chronic administration” value [11, 19] was “reverses mechanical allodynia” and the sign of toxicity [12] was “without any sign of toxicity; also recorded: no sign of toxicity”. The Emax ([13]; read-out: Emax, rMOR, [35S]GTP-γ-S binding) was 45%, the Emax ([13]; read-out: GTP binding rMOR Emax) was 45.6% and the Emax ([13]; read-out: GTP binding rMOR Emax (%)) was 45.6%. The Emax ([14]; read-out: Emax, hDOR, [35S]GTP-γ-S binding) was 51%, the Emax ([14]; read-out: GTP binding hDOR Emax) was 47.6% and the Emax ([14]; read-out: GTP binding hDOR Emax (%)) was 47.6%. It also gave a Kb ([2]; Substance P antagonist, GPI, Ke, in the presence of 1 μM naloxone) of 24.7 ± 8.8 nM, an activation at 1 µM ([2]; read-out: Substance P GPI agonist (A50), at 1 μM, contraction relative to initial muscle contraction with KCl) of 0% and an IC50 [15] of 22.3 nM. For the same compound, the “LogIC50, hDOR, [3H]DPDPE” value [16] was −8.22 ± 0.06, the anti-hyperalgesic recovery ([17]; 30 μg i.th., SNL rats) was about 100% and the “thermal hyperalgesia after chronic administration” value [17, 19] was “attenuates thermal hyperalgesia”. The anti-hyperalgesic efficacy ([17]; i.th., SNL rats, words) was “very potent; also recorded: Dose dependent anti-hyperalgesic efficacy”.

For `CN1CC[C@]23c4c5ccc(O)c4O[C@H]2[C@@H](O)C=C[C@H]3[C@H]1C5` [morphine, reference compound], the rotarod performance [18] is given as “impaired performance” and the “anti-allodynic effect against mechanical stimulation” value [11] is given as “negligible anti-allodynic efficacy”.
